Assay results taken from patent publication US20240316038A1, “APOL1 INHIBITORS AND METHODS OF USE” (Maze Therapeutics, Inc., priority 2021, published 2024).

Legend:
[1] = target: T1, APOL1 G2 (Homo sapiens, UniProt O14791, DEL388-389); experiment: Rescue of HEK293 cell death caused by overexpression of APOL1 (CellTiter-Glo luminescence), HEK293/T-REx APOL1 G2/clone #2; type: cell-based; settings: reversal of cell death caused by overexpression of APOL1; geometric mean of at least 2 assay runs, † = single assay run (technical duplicate)
T1 construct: expressed in transfected cells; host or cells: HEK293 T-REx clonal lines: HEK T-REx/GCaMP6f/APOL1 G2 K6.3 in A1, HEK293/T-REx APOL1 G2/clone #2 in A2
T1 sequence (O14791 with tags, fused parts or gaps DEL388-389): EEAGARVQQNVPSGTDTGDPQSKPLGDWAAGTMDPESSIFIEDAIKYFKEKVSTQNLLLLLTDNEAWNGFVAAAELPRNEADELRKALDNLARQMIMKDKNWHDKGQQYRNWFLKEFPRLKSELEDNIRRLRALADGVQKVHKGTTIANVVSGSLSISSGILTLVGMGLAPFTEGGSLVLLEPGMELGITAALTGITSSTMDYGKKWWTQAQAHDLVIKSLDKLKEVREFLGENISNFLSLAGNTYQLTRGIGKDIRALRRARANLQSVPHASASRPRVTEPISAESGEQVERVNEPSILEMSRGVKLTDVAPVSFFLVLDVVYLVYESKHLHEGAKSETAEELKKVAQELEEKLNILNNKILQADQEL
Procedure, shortened: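 Rescue EC50s come from four-parameter logistic fits, geometric mean of at least 2 runs on separate days, each in duplicate. Readout: CellTiter-Glo luminescence after 17 h at 37 °C of 5,000 HEK293/T-REx APOL1 G2 clone #2 cells/well, with 6 ng/mL doxycycline to induce APOL1 and 3-fold serial compound dilutions in 0.5% DMSO.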

[2] = target: T1, APOL1 G2; experiment: APOL1 calcium transport inhibition assay (GCaMP6f calcium influx, FLIPR) in HEK T-REx/GCaMP6f/APOL1 G2 K6.3 cells; type: cell-based; settings: inhibition of APOL1-mediated calcium influx; geometric mean of at least 2 assay runs, † = single assay run (technical duplicate)
Procedure, shortened: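 HEK293 cells stably expressing GCaMP6f, APOL1 G2 induced 6 h with doxycycline (20 ng/mL added), then washed into Ca2+-free Tyrode's buffer pH 7.4. Compounds (8-point dose response) preincubated 10 min at room temperature, then Ca2+ injected to 5 mM final and influx read on FLIPR. AC50 reported as geometric mean of runs.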

AC50 [2] [nM] | Structure (SMILES) | EC50 [1] [nM]
2480 | C[C@@H]1CN(CC(O)c2cccc(C#N)c2)C[C@H]1COc1ccc(S(C)(=O)=O)cc1 (single isomer, unassigned) [Compound 127, 3-[(1S or 1R)-1-hydroxy-2-[(3S,4S)-3-[(4-methanesulfonylphenoxy)methyl]-4-methylpyrrolidin-1-yl]ethyl] benzonitrile] | > 10000
817 | CC1CC(COc2ccc(S(C)(=O)=O)cc2)CN1CCc1cc(Cl)cc(C#N)c1 (single isomer, unassigned) [Compound 199, rac-cis or trans-3-chloro-5-{2-[4-[(4-methanesulfonylphenoxy)methyl]-2-methylpyrrolidin-1-yl]ethyl}benzonitrile] | 2440
< 5000 | CC1CC(COc2ccc(S(C)(=O)=O)cc2)CN1CCc1cccc(Cl)c1 (single isomer, unassigned) [Compound 57, (2S,4R) or (2S,4S) or (2R,4S) or (2R,4R)-1-(3-chlorophenethyl)-2-methyl-4-((4-(methylsulfonyl)phenoxy)methyl)pyrrolidine] | 1680
364 | C[C@@H]1C[C@H](COc2ccc(S(=O)(=O)CCCS(C)(=O)=O)cc2)CN1CCc1cc(Cl)cc(C#N)c1 [Compound 164, 3-chloro-5-{2-[(2R,4S)-4-{[4-(3-methanesulfonylpro-panesulfonyl)phe-noxy]methyl}-2-methylpyrrolidin-1-yl]ethyl}benzonitrile] | 34.1
1190 | CN(c1ccc(OCC2CN(CCc3cccc(Cl)c3)CCCO2)cc1)S(C)(=O)=O (single isomer, unassigned) [Compound 11, (R) or (S)-N-(4-((4-(3-chlorophenethyl)-1,4-oxazepan-2-yl)methoxy)phenyl)-N-methylmethane-sulfonamide] | 1000
151 | CN(c1ccc(OCC2CCCN(CCc3cccc(Cl)c3)C2)cc1)S(C)(=O)=O (single isomer, unassigned) [Compound 9, (R) or (S)—N-(4-((1-(3-chlorophenethyl)piperidin-3-yl)methoxy)phenyl)-N-methylmethanesulfonamide] | 263
4140 | CN(c1ccc(OC[C@@H](O)CNCCc2cccc(C#N)c2)cc1)S(C)(=O)=O [Compound 99, (S)-N-(4-(3-((3-cyanophenethyl)a-mino)-2-hydroxypropoxy)phe-nyl)-N-methylmethanesulfon-amide] | > 30000
358 | CN=S(C)(=O)c1ccc(OC[C@H]2C[C@@H](C)N(CCc3cccc(C#N)c3)C2)cc1 (single isomer, unassigned) [Compound 159, 3-{2-[(2R,4S)-2-methyl-4-({4-[(S or R)methyl(methyli-mino)oxo-λ^6-sulfanyl]phenoxy}methyl)pyrrolidin-1-yl]ethyl}benzonitrile] | 24.9
8480 | CN(c1ccc(OC[C@H](O)CN2CCOC(c3cccc(Cl)c3)C2)cc1)S(C)(=O)=O (single isomer, unassigned) [Compound 85, N-(4-((R)-3-((S) or (R)-2-(3-chlorophenyl)morpho-lino)-2-hydroxypropoxy)phe-nyl)-N-methylmethanesulfon-amide] | > 18000
558 | CN(c1ccc(OC[C@@H](O)CN2CCC(c3cccc(Cl)c3)C2)cc1)S(C)(=O)=O (single isomer, unassigned) [Compound 75, N-(4-((S)-3-((S) or (R)-3-(3-chlorophenyl)pyrro-lidin-1-yl)-2-hydroxypropoxy)phe-nyl)-N-methylmethanesulfon-amide] | 1460
580 | CC1CC(COc2ccc(S(C)(=O)=O)cc2)CN1CCc1cccc(Cl)c1 (single isomer, unassigned) [Compound 56, (2R,4R) or (2S,4R) or (2S,4S) or (2R,4S)-1-(3-chlorophenethyl)-2-methyl-4-((4-(methylsulfonyl)phenoxy)methyl)pyrrolidine] | 1680
< 253 | COC1CCN(CCc2cccc(Cl)c2)CC1COc1ccc(S(C)(=O)=O)cc1 (single isomer, unassigned) [Compound 38, (3S,4S) or (3R,4S) or (3 S,4R) or (3R,4R)-1-(3-chlorophenethyl)-4-methoxy-3-((4-(methylsulfonyl)phenoxy)methyl) piperidine] | 407
916 | CN(c1ccc(OC[C@@H](O)CN2CCC(c3cccc(Cl)c3)C2(C)C)cc1)S(C)(=O)=O (stereo partly drawn) [Compound 68, N-(4-((2S)-3-(3-(3-chlorophenyl)-2,2-dimethylpyrrolidin-1-yl)-2-hydroxypropoxy)phe-nyl)-N-methylmethanesulfon-amide] | 591

Second part, the compound before the results:

Structure (SMILES) | AC50 [2] [nM] | EC50 [1] [nM]
CS(=O)(=O)c1ccc(OC[C@@H]2CCCN(CC(O)c3cccc(Cl)c3)C2)cc1 (single isomer, unassigned) [Compound 21, (R) or (S)-1-(3-chlorophenyl)-2-((R)-3-((4-(methylsulfonyl)phenoxy)methyl)piperidin-1-yl)ethanol] | 623 | 1020
CS(=O)(=O)c1ccc(OCC2(O)CCCN(CCc3cccc(Cl)c3)C2)cc1 (single isomer, unassigned) [Compound 6, (S) or (R) -1-(3-chlorophenethyl)-3-((4-(methylsulfonyl)phenoxy)methyl) piperidin-3-ol] | 942 | 495
CS(=O)(=O)c1ccc(OC[C@H]2CCCN(CCc3cccc(Cl)c3)C2)cc1 [Compound 16, (S)-1-(3-chlorophenethyl)-3-((4-(methylsulfonyl)phenoxy)methyl)piperidine] | 231 | 329
CN=S(C)(=O)c1ccc(OC[C@H]2C[C@@H](C)N(CCc3cccc(C#N)c3)C2)cc1 (single isomer, unassigned) [Compound 158, 3-{2-[(2R,4S)-2-methyl-4-({4-[(R or S)methyl(methyli-mino)oxo-λ^6-sulfanyl]phenoxy}methyl)pyrrolidin-1-yl]ethyl}benzonitrile] | 352 | 39
COCCS(=O)(=O)c1ccc(OC[C@@H]2CN(CCc3cccc(Cl)c3)C[C@H]2C)cc1 (single isomer, unassigned) [Compound 111, (3S,4S or 3R,4R)-1-[2-(3-chlorophenyl)ethyl]-3-{[4-(2-methoxyethane-sulfonyl)phenoxy]methyl}-4-methylpyrrolidine] | 494 | 1880
CN(c1ccc(NCC(O)CNCCc2cccc(Cl)c2)cc1)S(C)(=O)=O (centres unmarked) [Compound 105, N-(4-((3-((3-chlorophenethyl)a-mino)-2-hydroxypropyl)ami-no)phenyl)-N-methylmethanesulfon-amide] | 946 | > 12400
C[C@H]1CC[C@H](COc2ccc(S(C)(=O)=O)cc2)CN1CCc1cccc(Cl)c1 [Compound 134, (25,5S)-1-[2-(3-chlorophenyl)ethyl]-5-[(4-methanesulfonylphenoxy)methyl]-2-methylpiperidine] | 277 | 908
CC1CNC(COc2ccc(S(C)(=O)=O)cc2)CN1CCc1cccc(Cl)c1 (single isomer, unassigned) [Compound 213, rac-trans or cis-(2R,5S)-1-[2-(3-chlorophenyl)ethyl]-5-[(4-methanesulfonylphenoxy)methyl]-2-methylpiperazine] | 877 | 964
CS(=O)(=O)c1ccc(OC[C@@H]2CCCN(CC(O)c3cccc(Cl)c3)C2)cc1 (single isomer, unassigned) [Compound 22, (S) or (R)-1-(3-chlorophenyl)-2-((R)-3-((4-(methylsulfonyl)phenoxy)methyl)piperidin-1-yl)ethanol] | 6410 | 6590
C[C@@H]1CN(CCc2cccc(Cl)c2)C[C@H]1COc1ccc(S(=O)(=O)CCS(C)(=O)=O)cc1 [Compound 107, (3S,4S)-1-[2-(3-chlorophenyl)ethy 1]-3-{[4-(2-methanesulfonyl-ethanesulfonyl)phenoxy]methyl}-4-methyl-pyrrolidine] | 91.9 | 80.9
CN(c1ccc(OC[C@H](O)CN2CCOC(c3cccc(Cl)c3)C2)cc1)S(C)(=O)=O (single isomer, unassigned) [Compound 84, N-(4-((R)-3-((R) or (S)-2-(3-chlorophenyl)morpho-lino)-2-hydroxypropoxy)phe-nyl)-N-methylmethanesulfon-amide] | > 25000 | > 30000
C[C@H]1CN(CCc2cccc(Cl)c2)C[C@@H]1COc1ccc(N(C)S(C)(=O)=O)cc1 (racemic) [Compound 45, rac-trans-N-(4-((1-(3-chlorophenethyl)-4-methylpyrrolidin-3-yl)methoxy)phenyl)-N-methylmethanesulfonamide] | 71.2 | < 13.7
